Measurements from patent US10053498B2, “Compositions comprising serum albumin and p53 peptides fusion proteins” (University of the Sciences of Philadelphia, priority 2014, dated 2018).

Key:
MDA-MB-231 cells = experiment: CyQuant cytotoxicity assay in MDA-MB-231 cells; type: cell-based; conditions: 24 hrs, relative to rHSA-treated cells; nutlin 10 μM, ABT-263 2.5 μM (FIG. 13)
Description: (§2) Cytotoxicities were measured by CyQuant Assay and normalized according to rHSA-treated cells.

Hela cells = experiment: CyQuant cytotoxicity assay in Hela cells; type: cell-based; conditions: 24 hrs, relative to rHSA-treated cells; nutlin 10 μM, ABT-263 2.5 μM (FIG. 13)
Description: as §2

[1] = plasma protein; cited from earlier work
SJSA-1 cells [2] = experiment: CyQuant cytotoxicity assay in SJSA-1 cells; type: cell-based; conditions: 24 hrs, relative to rHSA-treated cells; nutlin 10 μM (FIG. 13)
Description: Osteosarcoma SJSA-1 cells (ATCC) were grown in RPMI media containing 10% FBS. Cytotoxicity assays were performed using SJSA-1 cells plated in 24- or 96-well plates at 20,000 or 5,000 cells per well, respectively. Cells were allowed to attach overnight. All treatments were added on day 2 in RPMI media containing 1% FBS plus the equivalent amounts of 1×PBS buffer. Unless otherwise indicated, cells were exposed to treatment media for 24 hours, at which time cytotoxicity was measured using the fluorometric CyQuant assay (Invitrogen, C35006) or the fluorometric Homogeneous Caspase assay (Roche, 03005372001), according to the manufacturer's instructions, for detection of apoptosis. All results were plotted relative to rHSA- or where indicated, rHSA/FA-FITC-treated cells.

MDM2 = experiment: Western blot and densitometry of MDM2 protein in SJSA-1 cells; type: cell-based; conditions: 10 μM, 24 hrs, densitometry
Chain of MDM2 (Q00987 whole entry): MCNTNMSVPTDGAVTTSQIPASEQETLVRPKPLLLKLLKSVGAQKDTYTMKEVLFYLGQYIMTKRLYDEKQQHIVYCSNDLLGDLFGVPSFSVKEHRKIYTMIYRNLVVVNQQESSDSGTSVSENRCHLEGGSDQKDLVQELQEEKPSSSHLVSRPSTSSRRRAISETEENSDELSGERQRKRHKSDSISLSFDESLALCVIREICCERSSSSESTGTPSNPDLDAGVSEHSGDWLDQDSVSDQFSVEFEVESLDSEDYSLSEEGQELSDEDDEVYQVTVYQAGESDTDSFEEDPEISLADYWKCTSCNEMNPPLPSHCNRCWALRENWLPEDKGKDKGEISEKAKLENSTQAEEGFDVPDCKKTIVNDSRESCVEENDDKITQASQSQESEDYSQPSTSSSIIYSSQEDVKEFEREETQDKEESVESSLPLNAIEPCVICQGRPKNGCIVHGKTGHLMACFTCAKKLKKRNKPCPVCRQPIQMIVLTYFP
Description: (§1) SJSA-1 cells were lysed in buffer containing 20 mM Tris-HCl, 50 mM NaCl, 0.05% Triton X-100, and protease inhibitor cocktail. […] Mixtures were then allowed to incubate for 1 hour at RT.

p53 = experiment: Western blot and densitometry of p53 protein in SJSA-1 cells; type: cell-based; conditions: 10 μM, 24 hrs, densitometry
Description: as §1

SJSA-1 cells [3] = experiment: Cell death on co-treatment with MTX in SJSA-1 cells; type: cell-based; conditions: co-treatment with MTX versus single agents (FIG. 14A)
Description: As shown above, HSA-PMI may induce apoptosis by disrupting MDM2/MDMX-p53 interaction and/or by inducing the release of BAK from MCL-1 or BCL-Xl. […] To test this hypothesis, SJSA cells were treated with MTX alone, HSA-PMI/nutlin alone, or MTX and HSA-PMI/nutlin.

With `CC1(C)CCC(c2ccc(Cl)cc2)=C(CN2CCN(c3ccc(C(=O)NS(=O)(=O)c4ccc(N[C@H](CCN5CCOCC5)CSc5ccccc5)c(S(=O)(=O)C(F)(F)F)c4)cc3)CC2)C1` [ABT-263] the “cell death in MDA-MB-231 cells (p53 negative)” value (MDA-MB-231 cells) was “killed” and the “cell death in Hela cells (p53 under-expressing)” value (Hela cells) was “killed”.

In the case of “HSA: human serum albumin, the most abundant plasma protein”, the average half-life [1] is given as 19 days.

In the case of nutlin, the “cell death in SJSA-1 cells (p53 positive)” value (SJSA-1 cells [2]) is reported as “killed”, the “change in MDM2 protein expression” value (MDM2) is reported as 5 fold and the “increase in p53 protein” value (p53) is reported as 11.5 fold. The “cell death in combination with MTX” value (SJSA-1 cells [3]) was “not additive”.
